{"source": "patent US9023821B2", "about": "“Use of MicroRNA for treating diseases associated with a dysfunction of the cilia in multiciliated epithelial cells” (Centre National de la Recherche Scientifique, priority 2009, dated 2015)", "key": {"[1]": {"tested_on": "basal cells and pyramidal cells of the airway epithelium", "experiment": "miRNA expression in sorted basal cells versus pyramidal cells (ciliated + secretory), HTS and Agilent chips", "parameters": "species or system human", "experimental": "After dissociation of the stroma of nasal polyps, the epithelial cells (about 20.10^6) are incubated in PBS-BSA-EDTA for 30 min and then incubated with labeled antibody CD151-PE and anti-TF (tissue factor)-FITC for 20 min, 4° C. (see Hajj, R. et al., Stem Cells 25, 139-148 (2007)). After washing twice, the cells are taken up in PBS-EDTA and incubated with DAPI for labeling the cells whose integrity has been altered.\nCell sorting was carried out on the FACSAria sorter (BD Biosciences) equipped with 3 lasers, blue, red and violet. Dead cells, aggregates and double cells were excluded. The doubly positive population of basal cells (CD151+/FT+) and the negative population of cylindrical cells (containing ciliated cells and mucus-secreting cells) (CD151−/FT−) were selected and sorted at a rate of 5000 events/s ([…]). The purity and identity of the sorted cells were then verified by cytometry and immunocytochemistry.\nLike the native airway epithelium, the model of differentiation in vitro used in these tests consists of basal cells, ciliated cells and mucus-secreting cells. In order to identify the repertoires of the miRNAs specific to each of the cellular types, the inventors used cell sorting by flow cytometry by means of specific markers (Hajj, R. et al. 2007). Using this technique, adult airway progenitor cells (corresponding a priori to basal cells) were isolated, selected and sorted (such cells appear doubly positive for tetraspanin CD151 and for the tissue factor) from the pyramidal cells (i.e. ciliated cells and mucus-secreting cells) which appear negative for these same markers. These were purified from polyps or from nasal conchae obtained from 3 separate donors.\nAfter extracting the total RNAs, the expression profiles of the miRNAs were established by means of Agilent® commercial chips or by high-throughput sequencing (HTS). […] For the first time, the inventors thus attribute a repertoire of expression of the miRNAs specifically to separate cellular types of the airway epithelium during differentiation."}, "[2]": {"tested_on": "human airway epithelial cells (HAECs)", "experiment": "High-throughput sequencing (HTS) of miRNAs at four stages of differentiation of HAECs", "description": "The total RNAs were extracted from HAECs cultivated at the air-liquid interface at four stages of differentiation: ALI-D0 (0 day), ALI-D7 (7 days), ALI-FC (during appearance of the first cilia at about 14 days) and ALI-WD (wholly differentiated at about 21 days). The cells are lysed in reagent with Trizol® (Invitrogen). The total RNAs containing small RNAs and microRNAs are purified on Qiagen RNEasy columns (Qiagen) according to the supplier's instructions.\nThe total RNAs containing small RNAs and microRNAs are isolated as before. The procedure is based on the Applied Biosystems Ligase-Enhanced Genome Detection technology (LEGenD™); the SOLiD™ Small RNA Expression kit (Applied Biosystems, France) was used. With this method it is possible to convert the small RNAs of a sample into a library of double-stranded DNA; it was developed by Applied Biosystems SOLiD™ System for a new generation of high-throughput sequencing.\nThe high-throughput sequencing of the microRNAs was carried out according to the supplier's recommendations. Briefly, the total RNAs containing the small RNAs are hybridized (65° C., 10 min, then at 16° C., 5 min) and ligated (16° C., 2-16 h in a thermocycler) with the Adaptor Mix A for producing a matrix for sequencing the 5′ end of the small RNAs, or with the Adaptor Mix B for sequencing the 3′ end. The samples are then reverse-transcribed (42° C., 30 min) to synthesize the complementary DNA (cDNA). The library of small RNAs is amplified by PCR and after migration on polyacrylamide gel the amplified small RNAs are cut out and extracted from the gel according to their size (length of about 105-150 bases, according to the supplier's instructions), eluted and resuspended in nuclease-free water. The concentration of nucleic acids is then measured and normalized before proceeding with preparation of the samples for sequencing.\nFor each microRNA sequenced, the number of sequences of the 5p strand and of the 3p strand of the microRNA was normalized to 10^6 sequences and converted to percentage abundance of expression for each of the microRNAs. The data were then normalized according to a linear model and an empirical Bayesian method using software R. For subsequent analyses, only the microRNAs were retained for which the percentage expression (or abundance) is greater than 1% of the total of the microRNAs in at least one culture condition, with a |Log2 Ratio| below 0.5 and an adjusted P-value below 0.05."}, "[3]": {"tested_on": "human airway epithelial cells (HAECs)", "experiment": "Agilent miRNA chips, miRNA expression at four stages of differentiation of HAECs", "description": "In parallel with the high-throughput sequencing of the microRNAs, the repertoire of expression of the microRNAs (microRNAome) is investigated using the technology of Agilent® microRNA chips. For this, RNA samples from the same patients as before were used, labeled and hybridized on Agilent® miRNA chips (Human miRNA Microarray v2, containing 866 human miRNAs and 89 human viral miRNAs, i.e. all the human miRNAs contained and referenced in Sanger miRBase v.12.0, Agilent Technologies, France) using the “miRNA labeling and hybridization” kit, following the supplier's instructions (Agilent Technologies).\nThe inventors then used the Agilent miRNA chips to investigate the repertoire of expression of the miRNAs of the human airway epithelium and compare the results obtained in high-throughput sequencing with those obtained with Agilent® commercial miRNA chips."}}}
{"substance": "hsa-miR-30c: human miRNA, SEQ ID No. 34 (UGUAAACAUCCUACACUCUCAGC; expressed or natural sequence; listed as Homo sapiens)", "values": [{"measurement": "Modulation of expression of the miRNAs in pyramidal cells (323(−)) relative to basal cells 323(+)", "setting": "[1]; HTS and Agilent chips", "value": "−1.01"}, {"measurement": "Intensity of the level of expression in log2 in basal cells (323(+))", "setting": "[1]; basal cells", "value": 6.92, "unit": "log2"}, {"measurement": "Intensity of the level of expression in log2 in pyramidal cells (323(−))", "setting": "[1]; pyramidal cells (ciliated + secretory)", "value": 5.91, "unit": "log2"}, {"measurement": "Modulation (ratio of the level of intensity of expression in log2 in two stages of differentiation) measured by high-throughput sequencing, D7 − D0", "setting": "[2]; D7 − D0, Table VI", "value": 0.32, "unit": "log2"}, {"measurement": "Modulation (ratio of the level of intensity of expression in log2 in two stages of differentiation) measured by high-throughput sequencing, FC − D7", "setting": "[2]; FC − D7, Table VI", "value": "−0.33", "unit": "log2"}, {"measurement": "Modulation (ratio of the level of intensity of expression in log2 in two stages of differentiation) measured by high-throughput sequencing, WD − D0", "setting": "[2]; WD − D0, Table VI", "value": "−0.40", "unit": "log2"}, {"measurement": "Modulation (ratio of the level of intensity of expression in log2 in two stages of differentiation) measured by high-throughput sequencing, WD − FC", "setting": "[2]; WD − FC, Table VI", "value": "−0.39", "unit": "log2"}, {"measurement": "Level of intensity of expression in log2 At the differentiated stage (WD) measured in HTS", "setting": "[2]; healthy human airway epithelial tissue, stage WD", "value": 10.87, "unit": "log2"}, {"measurement": "Level of intensity of expression in log2 measured by high-throughput sequencing, D0", "setting": "[2]; stage D0, Table VI", "value": 0.42, "unit": "log2"}, {"measurement": "Level of intensity of expression in log2 measured by high-throughput sequencing, D7", "setting": "[2]; stage D7, Table VI", "value": 0.73, "unit": "log2"}, {"measurement": "Level of intensity of expression in log2 measured by high-throughput sequencing, FC", "setting": "[2]; stage FC, Table VI", "value": 0.41, "unit": "log2"}, {"measurement": "Level of intensity of expression in log2 measured by high-throughput sequencing, WD", "setting": "[2]; stage WD, Table VI", "value": 0.01, "unit": "log2"}, {"measurement": "Modulation (ratio of the level of intensity of expression in log2 in two stages of differentiation) measured with the Agilent chips, D7 − D0", "setting": "[3]; D7 − D0, Table VI", "value": 1.97, "unit": "log2"}, {"measurement": "Modulation (ratio of the level of intensity of expression in log2 at two stages of differentiation), FC − D7", "setting": "[3]; FC − D7, Agilent miRNA chips, Table V", "value": "−0.34", "unit": "log2"}, {"measurement": "Modulation (ratio of the level of intensity of expression in log2 in two stages of differentiation) measured with the Agilent chips, FC − D7", "setting": "[3]; FC − D7, Table VI", "value": "−0.34", "unit": "log2"}, {"measurement": "Modulation (ratio of the level of intensity of expression in log2 in two stages of differentiation) measured with the Agilent chips, WD − D0", "setting": "[3]; WD − D0, Table VI", "value": 1.51, "unit": "log2"}, {"measurement": "Modulation (ratio of the level of intensity of expression in log2 at two stages of differentiation), WD − FC", "setting": "[3]; WD − FC, Agilent miRNA chips, Table V", "value": "−0.12", "unit": "log2"}, {"measurement": "Modulation (ratio of the level of intensity of expression in log2 in two stages of differentiation) measured with the Agilent chips, WD − FC", "setting": "[3]; WD − FC, Table VI", "value": "−0.12", "unit": "log2"}, {"measurement": "Level of intensity of expression in log2 measured with the Agilent chips, D0", "setting": "[3]; stage D0, Table VI", "value": 7.80, "unit": "log2"}, {"measurement": "Level of intensity of expression in log2 measured with the Agilent chips, D7", "setting": "[3]; stage D7, Table VI", "value": 9.77, "unit": "log2"}, {"measurement": "Level of intensity of expression in log2 measured with the Agilent chips, FC", "setting": "[3]; stage FC, Table VI", "value": 9.43, "unit": "log2"}, {"measurement": "Level of intensity of expression in log2 measured with the Agilent chips, WD", "setting": "[3]; stage WD, Table VI", "value": 9.31, "unit": "log2"}]}
